Measured values reported in the NIST ThermoML archive (doi:10.1021/je100679s).

Legend:
[1] = 101 kPa, Liquid; for electrical conductivity: DDS-307 conductivity meter
[2] = xn = mol fraction of the nth substance listed; conditions: 101 kPa, Liquid, x2 = 0

CCCCCCn1cc[n+](C)c1C.O=S(=O)([N-]S(=O)(=O)C(F)(F)F)C(F)(F)F
[1]
Conditions | electrical conductivity [S/m] | mass density [kg/m3]
293.15 K | – | 1358.19
298.15 K | 0.108 | 1353.11
303.15 K | 0.158 | 1348.71
308.15 K | 0.213 | 1344.29
313.15 K | 0.271 | 1339.88
318.15 K | 0.319 | 1335.47
323.15 K | 0.369 | 1331.06
328.15 K | 0.426 | 1326.65
333.15 K | 0.48 | 1322.24

COC(=O)OC [dimethyl carbonate]
[1]
Conditions | mass density [kg/m3]
293.15 K | 1069.92
298.15 K | 1063.34
303.15 K | 1056.72
308.15 K | 1050.07
313.15 K | 1043.39
318.15 K | 1036.69
323.15 K | 1029.94
328.15 K | 1023.25
333.15 K | 1016.32

COC(=O)OC [dimethyl carbonate] + CCCCCCn1cc[n+](C)c1C.O=S(=O)([N-]S(=O)(=O)C(F)(F)F)C(F)(F)F
[2]
Conditions | mass density [kg/m3]
293.15 K | 1069.92
298.15 K | 1063.34
303.15 K | 1056.72
308.15 K | 1050.07
313.15 K | 1043.39
318.15 K | 1036.69
323.15 K | 1029.94
328.15 K | 1023.25
333.15 K | 1016.32
